{"source": "patent US8481691B2", "about": "“Method for selectively extracting membrane proteins using calixarenes” (Centre National de la Recherche Scientifique—CNRS, priority 2008, dated 2013)", "key": {"BmrA [1]": {"target": "T1, BmrA (Bacillus subtilis, UniProt O06967)", "T1 construct": "made in house; host or cells: E. coli C41 BL21(DE3), plasmid pET15b-BMRA; isolated membrane fraction", "T1 sequence (O06967 whole entry)": "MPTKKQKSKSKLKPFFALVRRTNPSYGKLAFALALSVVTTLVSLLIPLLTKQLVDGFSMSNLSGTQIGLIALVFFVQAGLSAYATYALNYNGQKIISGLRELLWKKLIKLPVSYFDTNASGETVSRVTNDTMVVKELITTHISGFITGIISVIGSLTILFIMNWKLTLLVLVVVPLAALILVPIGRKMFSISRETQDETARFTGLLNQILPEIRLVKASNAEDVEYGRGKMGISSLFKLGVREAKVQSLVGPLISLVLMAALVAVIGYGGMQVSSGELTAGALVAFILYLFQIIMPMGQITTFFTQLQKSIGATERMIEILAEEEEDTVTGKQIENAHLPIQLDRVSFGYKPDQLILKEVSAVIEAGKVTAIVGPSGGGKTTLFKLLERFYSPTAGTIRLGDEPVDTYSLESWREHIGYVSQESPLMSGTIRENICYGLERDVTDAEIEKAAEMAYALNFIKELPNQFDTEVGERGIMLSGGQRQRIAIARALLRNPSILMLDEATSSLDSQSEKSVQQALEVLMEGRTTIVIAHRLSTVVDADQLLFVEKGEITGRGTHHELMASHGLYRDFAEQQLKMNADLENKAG", "test": "Vanadate-sensitive ATPase activity of BmrA after solubilization", "format": "biochemical", "conditions": "for ATPase activity of BmrA with solubilization: increasing detergent concentration; for ATPase activity of BmrA with solubilization / Effect on ATPase activity of BmrA: FIG. 9; for ATPase activity of BmrA after reconstitution in liposomes: after removal of the detergents; for Loss of ATPase activity of BmrA once solubilized: relative to BmrA activity in natural membranes; for Effect on ATPase activity of BmrA: 1 mg/ml", "excerpt": "The solubilization tests take place as in FIG. 8 and the ATPase activity tests are described in example 11. The vertical dotted lines show the CMC of each compound. The black lozenges correspond to a test in which BmrA is solubilized with p(COOH)3—Ar4-o(C7H15) then reconstituted in lipids after removal of the detergent with biobeads (Bio-Rad) according to the procedure described in Lenoir et al..\nThe percentage of specific ATPase activity sensitive to vanadate (% SA or % VO4 sensitive Specific ATPase Activity) is evaluated for the following different cases: • BmrA Mb: activity of BmrA in natural membranes, • DDM sup./DDM: activity of BmrA in the DDM extract, • DDM sup./Lip.: activity of BmrA from the DDM extract and reconstituted in liposomes, • FC12 sup./FC12: activity of BmrA in the Foscholine 12 extract, • FC12 sup./Lip.: activity of BmrA from the Foscholine 12 extract and reconstituted in liposomes, • C4C7 sup./[…]: activity of BmrA in the calixarene C4C7 (in other words calix[4]arene-O-heptyloxy) extract, • C4C7 sup./Lip.: activity of BmrA from the calixarene C4C7 extract and reconstituted in liposomes.\nFIG. 12 summarizes the results of an extraction successively using the calixarenes C4C3 then C4C7 (FIG. 12A) followed by purification by gel filtration chromatography (FIGS. 12B-E).\nThe ATPase activity is measured by evaluating the inorganic phosphate content (Pi) after 5 minutes of incubation at 37° C. The fraction of Pi produced by other ATPase activities is deducted by measuring the same activity in the presence of 1 mM of ortho vanadate which inhibits the ATPase activity of BmrA (for example as described in [10]).\nThe effect of the solubilization by the p(COOH)3—Ar4-o(CnH2n+1) series on the ATPase activity of BmrA was analyzed under the same conditions as in FIG. 8.\nThe effects of the solubilization on the activity of the BmrA protein were evaluated with various C4Cn calixarenes, in other words the p(COOH)3—Ar4-o(CnH2n+1) calixarenes, but also with the control detergents such as Foscholine 12 (FC12) and β-D-dodecyl maltopyranoside (DDM), then the extracts obtained (supernatant fractions) were dialyzed in the presence of liposomes in order to restore a membrane environment, which enables the recovery of the activity of the protein."}, "BmrA [2]": {"target": "T1, BmrA", "test": "Solubilization of BmrA from enriched membrane fractions (centrifugation, SDS PAGE)", "format": "biochemical, E. coli membrane fraction", "conditions": "for Solubilization of BmrA (found in supernatant): detergent 10 mg/ml (1%), 2 mg proteins/ml, 2 hrs at 4° C., FIG. 7; for Solubilization of BmrA: FIG. 8", "excerpt": "The gray and black dotted lines and the black line serve as a scale of the efficacy of the molecules to be solubilized. The “no det” lines signify “without detergent”.\nThe experimental conditions are those of FIG. 7, with the exception of the concentrations of the butyl, heptyl and dodecyl molecules which are as indicated in the figure, for which the g/L<->M correspondence is indicated in Table 2. The “no det” lines signify “without detergent”.\nThe competent bacteria C41 BL21(DE3) E. coli (Escherichia coli) were transformed with the plasmid pET15b-BMRA bearing the gene coding for BmrA and placed under the control of an inducible promoter and a gene coding for the protein conferring resistance to ampicillin. A positive clone was cultured in a liquid medium at 37° C. and 200 rpm in the presence of ampicillin until a semi-exponential growth phase. The expression of BmrA is induced by addition of 1 mM of isopropyl thio β-galactoside and continued at 25° C. for 4 hrs. The bacteria were harvested by centrifugation, disrupted in a French press, and the membrane fraction was isolated by a series of centrifugation stages at low and high speeds. The protein content was evaluated by colorimetry and set at 20 mg/ml (20 mM Tris-Cl pH 8.0, […] NaCl, 300 mM sucrose) before freezing and storage in liquid nitrogen. Before use, the membrane fraction is then rapidly thawed in water and maintained at 4° C. in ice.\nThe solubilization is effected at 4° C."}, "[3]": {"test": "Critical Micellar Concentration estimated from surface tension data", "format": "physicochemical", "experimental": "The effect of the molecules having an alkyl chain with 1 to 12 methylene groups (m, x axis in the figure) on the CMC is measured at a concentration of 10^−2 M, at pH 6.0 (solid circles) and 8.0 (open circles). Each point corresponds to the mean of three values, estimated from the data from FIG. 2.\n(§1) The surfactant properties of the calixarenes of formula (I) are evaluated in a 1 ml sitting drop by means of a Kibron micro-depression instrument and using a stainless steel syringe and a Wilhelmy balance. The curves obtained are processed with the software Sigmaplot v11.\nCritical Micellar Concentration (CMC) is understood to mean the concentration beyond which the concentration of the detergent molecules no longer increases since said molecules are involved in micelles (FIG. 13). […] Conversely, when the alkyl chains include more than 8 methylene groups, the resulting CMC decreases appreciably to 0.15 mM when the pH increases from 6 to 8."}, "[4]": {"test": "Aggregation state / apparent diameter of aggregates", "format": "physicochemical"}, "[5]": {"test": "Surface tension measurement of water (surfactant properties)", "format": "physicochemical", "excerpt": "The effect of the derivatives of calix[4]arene containing alkyl chains with 1 to 12 carbon atoms on the surface tension of water was followed as a function of the concentration of said derivatives (molar M or mol/L) at pH 6.0 (not exposed) and 8.0 (exposed). The surface-active properties of DDM (β-D-dodecyl malto-pyranoside) are also shown in this figure. Each point corresponds to the mean of three values.\nThe effect of the molecules containing an alkyl chain having from 1 to 12 methylene groups (n, x axis in FIG. 3) on the surface tension of water was measured at a concentration of 10^−2M, at pH 6.0 (open circles) and at pH 8.0 (squares). Each point corresponds to the mean of three values.\nas §1"}, "[6]": {"test": "Modulation of surfactant potential by amino acids (surface tension)", "format": "physicochemical", "conditions": "compound 10^−2 M, pH 8.0", "experimental": "The compound p(COOH)3—Ar4-o(C7H15) is present at a concentration of 10^−2 M whereas that of the amino acids vary as indicated. The surface tension is measured at pH 8.0. The amino acids are indicated by their three-letter code: Glu=glutamic acid, Trp=tryptophan, Asn=asparagine, Gly=glycine, Ala=alanine, Ser=serine, Phe=phenylalanine, Leu=leucine, Pro=Proline, Lys=lysine, His=histidine, Arg=arginine. Each point corresponds to the mean of three values.\nas §1"}}}
{"compound": "CCCCCCCCCCCCOCCOCCOCCOCCOCCOCCOCCOCCO", "note": "[C12E8]", "values": [{"measurement": "ATPase activity of BmrA with solubilization", "setting": "BmrA [1]", "value": "decreases with the solubilization"}]}
{"compound": "CCCCCCCCCCCCO[C@@H]1O[C@H](CO)[C@@H](O[C@H]2O[C@H](CO)[C@@H](O)[C@H](O)[C@H]2O)[C@H](O)[C@H]1O", "note": "[DDM, n-dodecyl-β-D-maltopyranoside]", "values": [{"measurement": "Solubilization of BmrA (found in supernatant)", "setting": "BmrA [2]", "value": "more pronounced"}, {"measurement": "ATPase activity of BmrA after reconstitution in liposomes", "setting": "BmrA [1]; FIG. 11", "value": "recovered"}, {"measurement": "Loss of ATPase activity of BmrA once solubilized", "setting": "BmrA [1]; FIG. 11", "value": 95, "unit": "%"}]}
{"compound": "CCCCCCCCCCCCOP(=O)([O-])OCC[N+](C)(C)C", "note": "[FC12, n-dodecylphosphocholine]", "values": [{"measurement": "Solubilization of BmrA (found in supernatant)", "setting": "BmrA [2]", "value": "complete"}, {"measurement": "ATPase activity of BmrA after reconstitution in liposomes", "setting": "BmrA [1]; FIG. 11", "value": "recovered"}, {"measurement": "ATPase activity of BmrA with solubilization", "setting": "BmrA [1]", "value": "decreases with the solubilization"}, {"measurement": "Loss of ATPase activity of BmrA once solubilized", "setting": "BmrA [1]; FIG. 11", "value": 99, "unit": "%"}]}
{"compound": "COc1c2cccc1Cc1cc(CC(=O)O)cc(c1O)Cc1cc(CC(=O)O)cc(c1O)Cc1cc(CC(=O)O)cc(c1O)C2", "note": "[compound 5a, 5,11,17 tris-[(carboxylato)methyl]25-mono-methyloxy 26,27,28 tris-hydroxycalix[4]arene]", "values": [{"measurement": "CMC", "setting": "[3]", "value": ">1.5", "unit": "mM"}, {"measurement": "Apparent diameter (nm)", "setting": "[4]; pH 2", "value": 950, "unit": "nm"}, {"measurement": "Apparent diameter (nm)", "setting": "[4]; pH 4", "value": 340, "unit": "nm"}, {"measurement": "Apparent diameter (nm)", "setting": "[4]; pH 8", "value": 270, "unit": "nm"}, {"measurement": "Solubilization of BmrA (found in supernatant)", "setting": "BmrA [2]", "value": "No solubilization"}]}
{"compound": "CCCCOc1c2cccc1Cc1cc(CC(=O)O)cc(c1O)Cc1cc(CC(=O)O)cc(c1O)Cc1cc(CC(=O)O)cc(c1O)C2", "note": "[compound 5b, 5,11,17 tris-[(carboxylato)methyl]25-mono-butyloxy 26,27,28 tris-hydroxycalix[4]arene]", "values": [{"measurement": "Apparent diameter (nm)", "setting": "[4]; pH 2", "value": 500, "unit": "nm"}, {"measurement": "Apparent diameter (nm)", "setting": "[4]; pH 6", "value": 145, "unit": "nm"}, {"measurement": "Solubilization of BmrA (found in supernatant)", "setting": "BmrA [2]", "value": "increases progressively"}]}
{"compound": "CCCCCCOc1c2cccc1Cc1cc(CC(=O)O)cc(c1O)Cc1cc(CC(=O)O)cc(c1O)Cc1cc(CC(=O)O)cc(c1O)C2", "note": "[compound 5c]", "values": [{"measurement": "Apparent diameter (nm)", "setting": "[4]; pH 2", "value": 850, "unit": "nm"}, {"measurement": "Apparent diameter (nm)", "setting": "[4]; pH 6", "value": 400, "unit": "nm"}, {"measurement": "Solubilization of BmrA (found in supernatant)", "setting": "BmrA [2]", "value": "more pronounced"}]}
{"compound": "CCCCCCCCCCCCOc1c2cccc1Cc1cc(CC(=O)O)cc(c1O)Cc1cc(CC(=O)O)cc(c1O)Cc1cc(CC(=O)O)cc(c1O)C2", "note": "[compound 5d, 5,11,17 tris-[(carboxylato)methyl]25-mono-dodecyl 26,27,28 tris-hydroxycalix[4]arene]", "values": [{"measurement": "Surface tension plateau relative to initial surface tension", "setting": "[5]; 10^−2 M, pH 8.0, FIG. 3", "value": "half the initial surface tension"}, {"measurement": "Surfactant properties (ability to decrease the surface tension of water)", "setting": "[5]; as a function of concentration, FIG. 2", "value": "surfactant properties close to those of DDM"}, {"measurement": "CMC", "setting": "[3]", "value": "~0.15", "unit": "mM"}, {"measurement": "Critical Micellar Concentration (CMC)", "setting": "[3]", "value": 0.15, "unit": "mM"}, {"measurement": "Apparent diameter (nm)", "setting": "[4]; pH 2", "value": 880, "unit": "nm"}, {"measurement": "Apparent diameter (nm)", "setting": "[4]; pH 6", "value": 190, "unit": "nm"}, {"measurement": "Solubilization of BmrA", "setting": "BmrA [2]; 1 mg/ml", "value": "rather effectively"}, {"measurement": "Solubilization of BmrA", "setting": "BmrA [2]; at CMC of 0.15 mM (0.1 g/L)", "value": "no solubilization"}, {"measurement": "Effect on ATPase activity of BmrA", "setting": "BmrA [1]", "value": "does not lead to inactivation"}]}
{"compound": "calix[4]arene-O-heptyloxy [C4C7]", "values": [{"measurement": "CMC", "setting": "[3]", "value": "~1.5", "unit": "mM"}, {"measurement": "Critical Micellar Concentration (CMC)", "setting": "[3]", "value": "about 1.5 mM"}, {"measurement": "Effect of amino acid on surface tension", "setting": "[6]; alanine, phenylalanine, leucine", "value": "amplified"}, {"measurement": "Effect of amino acid on surface tension", "setting": "[6]; glutamic acid or asparagine", "value": "No effect"}, {"measurement": "Effect of amino acid on surface tension", "setting": "[6]; glycine", "value": "moderate effect"}, {"measurement": "Effect of amino acid on surface tension", "setting": "[6]; positively charged amino acids histidine, lysine, arginine, listed as n=7", "value": "very pronounced"}, {"measurement": "Effect of amino acid on surface tension", "setting": "[6]; positively charged amino acids histidine, lysine, arginine, listed as p(COOH)3—Ar4-o(C7H15)", "value": "easily increased"}, {"measurement": "Solubilization of BmrA", "setting": "BmrA [2]; 1 mg/ml", "value": "rather effectively"}, {"measurement": "Effect on ATPase activity of BmrA", "setting": "BmrA [1]", "value": "does not lead to inactivation"}, {"measurement": "ATPase activity of BmrA preserved", "setting": "BmrA [1]; C4C3 and C4C7 used successively, FIG. 11", "value": "about 50%"}, {"measurement": "ATPase activity of BmrA fraction after gel filtration", "setting": "BmrA [1]; extracted with C4C7, gel filtration in the presence of FC12, fraction a FIG. 12E", "value": "recovered active"}, {"measurement": "ATPase activity of BmrA fraction reconstituted in liposomes", "setting": "BmrA [1]; extracted with C4C7, gel filtration, then liposomes, fraction b FIG. 12E", "value": "elevated ATPase activity was recovered"}]}
